Test results from US20120093735A1, “COMPLEX COMPOUND AND MRI PROBE MADE OF SAME” (priority 2005, published 2012).

What was measured:
Assay type in all cases: physicochemical
[1] = T1-weighted images of KMR-Ca001 solutions (1.5T MR scanner); settings: 0.05M Tris/HCl pH 7.4, 1.5T
Method: Water, solutions containing KMR-Ca001 alone at concentrations of 0.1, 0.3, 0.6, 1.0 and 3.0 mM, respectively, and solutions containing 0.3 mM KMR-Ca001 and CaCl2 at concentrations of 0.5, 0.6, 0.8, 1.0, 10.0, 20.0, 50.0, 80.0 mM, respectively, in 0.05M Tris/HCl buffer, pH 7.4, were prepared, and placed in glass tubes, respectively. These glass tubes were stood on agar contained in a Tupperware, and T1-weighted images were obtained by T1-weighted GRE using a 1.5T MR scanner (Signa Horzon LX, produced by GE Yokogawa Medical Systems).
As a result, as KMR-Ca001 increased, the T1-weighted images became whiter, so that it was confirmed that KMR-Ca001 functioned and effective as an MRI contrast agent. The T1-weighted images of the solutions containing 0.3 mM KMR-Ca001 to which calcium ion was added, as the calcium ion increases, coordination of water to gadolinium ion was more inhibited, so that T1-weighted image became darker. By this, it was confirmed that KMR-Ca001 is an MRI contrast agent which responds to calcium ion concentration.

[2] = Relaxivity R1 of KMR-Ca001 depending on abundance of ions; settings: CaCl2 vs NaCl, MgCl2, FeCl3; 0.05M Tris/HCl pH 7.4, 0.47 T, 40° C.
Method: (§1) Solutions of KMR-Ca001 (0.6 mM) and CaCl2 (0, 0.01, 0.1, 0.2, 0.3, 0.4, 0.5, 0.6, 0.7, 0.8, 1.0, 1.2, 3.0, 10, 30, 100mM) in 0.05M Tris/HCl buffer, pH 7.4, were prepared in an amount of 2 mL, respectively. Each solution was measured for the longitudinal relaxation time T1 three times using NMS 120 Minispec NMR ANALYZER (0.47 T, 40° C., IR pulse). Then each solution was sequentially diluted to attain […] concentrations of 0.45 mM and 0.35 mM, respectively, and the longitudinal relaxation time T1 was measured therefor in the same manner. By taking [KMR-Ca001] along the abscissa and taking 1/T1 along the ordinate, relaxivity R1 was determined from the slope. Measurements of the longitudinal relaxation time were carried out in the same manner using NaCl, MgCl2 or FeCl3.

[3] = Relaxivity R1 of KMR-Ca001 in the presence of iron ion; settings: 0.05M Tris/HCl pH 7.4, 0.47 T, 40° C.; iron ion per se has relaxing capability
Method: as §1

[4] = Relaxivity R1 of KMR-K001 in the presence of zinc ion; settings: 0.05M Tris/HCl pH 7.4, 0.47 T, 40° C.; gadolinium ion liberated by ligand exchange
[5] = Relaxivity R1 of KMR-K001 depending on abundance of ions; settings: KCl vs CaCl2, MgCl2, FeCl3; 0.05M Tris/HCl pH 7.4, 0.47 T, 40° C.
Method: Solutions of KMR-K001 (1.0 mM) and KCl (0, 0.01, 0.1, 0.3, 0.6, 0.9, 1.2, 1.5, 1.8, 2.4, 3.0, 10, 30. 100 mM) in 0.05M Tris/HCl buffer, pH 7.4, were prepared in an amount of 2 mL, respectively. Each solution was measured for the longitudinal relaxation time T1 three times using NMS 120 Minispec NMR ANALYZER (0.47 T, 40° C., IR pulse). Then each solution was sequentially diluted to attain KMR-K001 concentrations of 0.9 mM and 0.8 mM, respectively, and the longitudinal relaxation time T1 was measured therefor. By taking [KMR-K001] along the abscissa and taking 1/T1 along the ordinate, relaxivity R1 was determined from the slope. Measurements of the longitudinal relaxation time were carried out in the same manner using CaCl2, MgCl2 or FeCl3.

Substance	T1-weighted image change with increasing calcium ion ([1]; 0.3 mM KMR-Ca001 with CaCl2 0.5-80.0 mM)	T1-weighted image change with increasing probe concentration ([1]; KMR-Ca001 alone 0.1-3.0 mM)	ion selectivity of relaxivity R1 response [2]	change of relaxivity in the presence of iron ion [3]	change of relaxivity in the presence of zinc ion [4]	ion selectivity of relaxivity R1 response [5]
{bis-[2-({[3-(bis-carboxymethyl-amino)-4-methoxy-phenylcarbamoyl]-methyl}-carboxymethyl-amino)-ethyl]-amino}-acetic acid gadolinium complex [KMR-Ca001]	became darker	became whiter	selectively responds to calcium ion	the relaxivity is sharply increased	–	–
[bis-(2-{[(2-carboxy-(benzo-15-crown-5)-ethylcarbamoyl)-methyl]-carboxymethyl-amino}-ethyl)-amino]-acetic acid gadolinium complex [KMR-K001]	–	–	–	–	the relaxivity is sharply increased	selectively responds to potassium ion
